# What was measured:
# physchem [1] = test: physchem
# Experimental: The following oils were used in the research: hemp oil, evening primrose oil, and sunflower oil, as well as the following surfactants: Tween 40, Tween 60, Span 80, and Tween 80. […] The study was carried out in screw-cap vials with continuous magnetic stirring at 100 rpm at 25 °C for 48 h. A supersaturated solution was obtained and filtered through a syringe filter with MCE (Mixed Cellulose Ester) membrane (0.45 µm, ⌀ 47 mm). The content of the compound in the solution was determined by HPLC. The HPLC analyses were performed using a Shimadzu (Kyoto, Japan) Nexera-i LC-2040C 3D High Plus liquid chromatograph equipped with a DAD/FLD detector and Kinetex® F5 column 100 Å ([…]; 150 × 4.6 mm; Phenomenex, Torrance, CA, USA) maintained at 35 °C. The mixture of acetonitrile and water 60/40 (v/v) was used as the mobile phase under isocratic conditions, with a flow rate of 0.5 mL/min. The detection wavelength was 210 nm. The collected data were acquired and processed using LabSolutions/LC Solution System. Each measurement was performed in triplicate, and the results were averaged.
# [2] = Permeation of the active substance through the skin, Franz diffusion cell; assay type: in vitro ADME, pig; settings: 24 h permeation test; abstract prints human skin
# Text: The steady-state flux was estimated from the slope of the linear portion of the plot of cumulative mass in the acceptor phase over time.
# physchem [3] = test: physchem; remark: listed apart in the source
# Experimental: Lipophilicity is essential for predicting the hydrophobicity and partitioning of drugs in biological systems. Therefore, the test was prepared using the shake-flask method.
# [4] = for T5%, decomposition temperature, 5% weight loss of the initial mass / T50%, decomposition temperature, 50% weight loss of the initial mass: TG, oxidative conditions
# Experimental: The thermal stability of drugs is an essential property necessary to control the formulation method of the finished drug. […] Both the temperature at which decomposition begins (Tonset) and the temperature at which mass loss accelerates to its maximum (Tmax) were identified. […]
# XRD, thermal stability (TG), phase transition temperatures (DSC), specific rotation, solubility in water, and lipophilicity were also determined. […]
# Thermal stability was assessed using thermogravimetric analyses performed on a Netzsch thermomicrobalance TG 209 F1 Libra. The analysis was conducted under oxidative conditions, with a nitrogen flow (as protective gas) of 10 mL/min, an airflow of 25 mL/min, and a temperature range of 25 to 1000 °C. Samples of roughly 5 mg weight were heated at 10°/min. The onset decomposition temperature was calculated using the intersection of TG curve tangents. The temperatures associated with the quickest sample weight loss were calculated using the first derivative of the TG curve (DTG curve). […]
"solubility at 48 h (physchem [1]; Span 80, 25 °C, aqueous with cosolvent or surfactant or cyclodextrin, thermodynamic from solid) [mg/mL]",solubility at 48 h (physchem [1]; Tween 40) [mg/mL],"solubility at 48 h (physchem [1]; Tween 60, 25 °C, aqueous with cosolvent or surfactant or cyclodextrin, thermodynamic from solid) [mg/mL]",solubility at 48 h (physchem [1]; Tween 80) [mg/mL],"solubility at 48 h (physchem [1]; evening primrose oil, 25 °C, oil or lipid, thermodynamic from solid) [mg/mL]",solubility at 48 h (physchem [1]; hemp oil) [mg/mL],"Solubility (physchem [1]; in Sunflower oil, 25 °C, mean ± S.D., n = 3) [mg/mL]","Average cumulative mass of IBU after 24 h from emulsion-based gel, times higher than commercial products [2]",logP (physchem [3]),"Tonset, the onset temperature of the thermal degradation [4] [°C]","T5%, decomposition temperature, 5% weight loss of the initial mass [4] [°C]","T50%, decomposition temperature, 50% weight loss of the initial mass [4] [°C]",SMILES
56.89 ± 0.15,466.1 ± 1.71,519.6 ± 0.69,411 ± 4.18,76.74 ± 0.35,95.44 ± 0.03,65.10 ± 1.92,1.6–4.0 times,2.758 ± 0.014,193.2,162.1,210.3,"CC(C)Cc1ccc(C(C)C(=O)O)cc1 (stereo not drawn) [IBU, ibuprofen]"
–,–,–,–,–,–,–,–,–,265.4,285.4,445.1,"CC(C)Cc1ccc(C(C)C(=O)[O-])cc1.[Na+] (stereo not drawn) [IBUNa, sodium ibuprofenate]"

# From publication PMC10217311 (Gels, 2023)
